Results taken from publication PMC11790914, “Chemogenomics for steroid hormone receptors (NR3)” (Communications Chemistry, 2025).
“And” between values parts separate entries of the source, which are not always exact repeats. Equal values may be shown once.

Tests used:
HEK293T cells [1] = assay: Cytotoxicity: necrosis induction (red fluorescent dye for permeable plasma membranes); type: cell-based; details: 1 µM, 24 h, necrotic cell count normalized to 0.1% DMSO, single replicates;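 further: compounds applied in DMEM high glucose with 0.1% FCS and 0.1% DMSO, necrotic HEK293T cells counted by red staining of cells whose plasma membranes had become permeable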
Gal4-VP16 = type: cell-based; details: 1 µM; vs. DMSO ctrl; single replicates n=1-3
Experimental: Five hours after transfection, the cells were incubated with the NR3 CG compound candidates at the recommended concentrations by changing the medium to Opti-MEM supplemented with penicillin (100 µ/mL) and streptomycin (100 µg/mL) additionally containing 0.1% DMSO and the respective test compound or 0.1% DMSO alone as untreated control. Firefly (reporter) and renilla (control) luminescence were measured after 14–16 h incubation using the Dual-Glo® Luciferase Assay System (Promega, Fitchburg, Wisconsin, USA; #E2980) according to manufacturer’s protocol on a Tecan Spark® 10M multimode microplate reader (Tecan Group AG, Männedorf, Switzerland). To obtain relative light units (RLU) firefly luminescence was divided by renilla luminescence and multiplied by 1000. Fold activation was obtained by dividing the mean RLU of a test sample by the mean RLU of the DMSO (0.1%) control. Experiments were performed in singlets in at least three biologically independent repeats.
are labeled according to their mode of action (yellow - agonist, grey - antagonist, grey with label D - degrader) and grouped by their
NR3 subfamily main targets.
reporter activity at the indicated concentrations expressed as mean fold reporter gene activity (n=3).

ABL1 = biological target: T1, ABL1 (Homo sapiens, UniProt P00519); assay: Liability panel screening by DSF: ABL1; type: binding; details: DSF, 20 µM, n=2; read-out: Mean ΔTM ABL1
T1 construct: made in house
T1 sequence (P00519 whole entry, species assumed): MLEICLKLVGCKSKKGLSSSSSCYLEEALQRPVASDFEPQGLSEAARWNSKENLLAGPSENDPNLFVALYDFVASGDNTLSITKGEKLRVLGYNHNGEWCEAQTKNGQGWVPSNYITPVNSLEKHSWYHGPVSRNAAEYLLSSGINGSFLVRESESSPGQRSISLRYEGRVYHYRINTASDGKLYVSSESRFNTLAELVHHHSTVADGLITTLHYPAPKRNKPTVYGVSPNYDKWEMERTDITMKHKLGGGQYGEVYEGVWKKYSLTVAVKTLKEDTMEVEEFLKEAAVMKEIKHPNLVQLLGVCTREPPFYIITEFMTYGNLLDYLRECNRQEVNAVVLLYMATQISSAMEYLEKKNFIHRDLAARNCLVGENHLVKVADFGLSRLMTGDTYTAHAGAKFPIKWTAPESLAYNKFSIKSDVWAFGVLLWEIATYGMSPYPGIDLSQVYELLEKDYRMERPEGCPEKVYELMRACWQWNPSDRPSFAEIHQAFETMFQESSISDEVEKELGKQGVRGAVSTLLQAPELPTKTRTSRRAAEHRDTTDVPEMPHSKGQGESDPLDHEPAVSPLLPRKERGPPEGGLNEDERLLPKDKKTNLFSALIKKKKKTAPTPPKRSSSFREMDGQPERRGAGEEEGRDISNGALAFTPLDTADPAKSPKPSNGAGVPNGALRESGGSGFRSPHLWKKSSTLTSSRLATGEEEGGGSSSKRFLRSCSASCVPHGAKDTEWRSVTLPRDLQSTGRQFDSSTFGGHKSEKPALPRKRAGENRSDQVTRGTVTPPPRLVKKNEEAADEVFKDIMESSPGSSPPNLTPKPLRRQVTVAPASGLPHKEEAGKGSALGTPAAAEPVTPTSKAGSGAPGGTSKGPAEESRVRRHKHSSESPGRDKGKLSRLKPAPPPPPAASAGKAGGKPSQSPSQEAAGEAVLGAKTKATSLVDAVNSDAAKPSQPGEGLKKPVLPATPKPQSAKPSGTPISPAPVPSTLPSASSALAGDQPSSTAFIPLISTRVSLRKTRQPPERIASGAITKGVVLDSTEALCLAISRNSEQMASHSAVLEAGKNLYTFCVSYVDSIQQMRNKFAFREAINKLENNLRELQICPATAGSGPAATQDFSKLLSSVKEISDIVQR
Experimental: (§1) Reference ligands are listed in the methods section.
(§2) In-house produced recombinantly expressed proteins[62] of the liability panel targets were diluted in a buffer containing 10 mM HEPES (pH 7.5) and 500 mM NaCl to a concentration of 2 µM. SYPRO Orange (Invitrogen, Carlsbad, California, USA; #S6650) as a fluorescence probe was added at a 1:1000 dilution to the proteins. […] Temperature-dependent unfolding profiles were measured on a QuantStudio™ 5 real-time PCR machine (Thermo Fisher Scientific, Waltham, Massachusetts, USA; #A28140). […] The temperature was increased 3 °C per minute to a maximum temperature of 85 °C. Experiments were run as technical duplicates. […] Data were analyzed with the internal Thermal Shift Software (version 1.4, Thermo Fisher Scientific) using the Boltzmann equitation to determine the inflection point of the transition curve. Differences in melting temperature are given as ∆Tm in K. […]
(§3) scanning fluorimetry (DSF).
(§4) a concentration of 20 µM.

AURKA = biological target: T2, AURKA (Homo sapiens, UniProt O14965); assay: Liability panel screening by DSF: AURKA; type: binding; details: DSF, 20 µM, n=2; read-out: Mean ΔTM AURKA
T2 construct: made in house
T2 sequence (O14965 1-403): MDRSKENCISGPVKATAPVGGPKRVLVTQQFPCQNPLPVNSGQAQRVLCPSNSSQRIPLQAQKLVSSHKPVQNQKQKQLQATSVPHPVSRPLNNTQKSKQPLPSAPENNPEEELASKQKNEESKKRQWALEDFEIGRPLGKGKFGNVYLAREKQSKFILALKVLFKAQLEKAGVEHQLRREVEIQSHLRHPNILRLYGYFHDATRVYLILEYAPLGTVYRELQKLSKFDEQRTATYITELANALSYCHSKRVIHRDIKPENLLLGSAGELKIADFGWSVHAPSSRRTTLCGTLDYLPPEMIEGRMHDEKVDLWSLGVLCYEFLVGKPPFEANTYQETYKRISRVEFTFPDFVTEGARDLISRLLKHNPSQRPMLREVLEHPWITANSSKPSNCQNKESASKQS
Experimental: as §1, §2, §3, §4

CDK2 = biological target: T3, CDK2 (Homo sapiens, UniProt P24941); assay: Liability panel screening by DSF: CDK2; type: binding; details: DSF, 20 µM, n=2; read-out: Mean ΔTM CDK2
T3 construct: made in house
Experimental: as §1, §2, §3, §4

FGFR3 = biological target: T4, FGFR3 (Homo sapiens, UniProt P22607); assay: Liability panel screening by DSF: FGFR3; type: binding; details: DSF, 20 µM, n=2; read-out: Mean ΔTM FGFR3
T4 construct: made in house
T4 sequence (P22607 23-806, species assumed): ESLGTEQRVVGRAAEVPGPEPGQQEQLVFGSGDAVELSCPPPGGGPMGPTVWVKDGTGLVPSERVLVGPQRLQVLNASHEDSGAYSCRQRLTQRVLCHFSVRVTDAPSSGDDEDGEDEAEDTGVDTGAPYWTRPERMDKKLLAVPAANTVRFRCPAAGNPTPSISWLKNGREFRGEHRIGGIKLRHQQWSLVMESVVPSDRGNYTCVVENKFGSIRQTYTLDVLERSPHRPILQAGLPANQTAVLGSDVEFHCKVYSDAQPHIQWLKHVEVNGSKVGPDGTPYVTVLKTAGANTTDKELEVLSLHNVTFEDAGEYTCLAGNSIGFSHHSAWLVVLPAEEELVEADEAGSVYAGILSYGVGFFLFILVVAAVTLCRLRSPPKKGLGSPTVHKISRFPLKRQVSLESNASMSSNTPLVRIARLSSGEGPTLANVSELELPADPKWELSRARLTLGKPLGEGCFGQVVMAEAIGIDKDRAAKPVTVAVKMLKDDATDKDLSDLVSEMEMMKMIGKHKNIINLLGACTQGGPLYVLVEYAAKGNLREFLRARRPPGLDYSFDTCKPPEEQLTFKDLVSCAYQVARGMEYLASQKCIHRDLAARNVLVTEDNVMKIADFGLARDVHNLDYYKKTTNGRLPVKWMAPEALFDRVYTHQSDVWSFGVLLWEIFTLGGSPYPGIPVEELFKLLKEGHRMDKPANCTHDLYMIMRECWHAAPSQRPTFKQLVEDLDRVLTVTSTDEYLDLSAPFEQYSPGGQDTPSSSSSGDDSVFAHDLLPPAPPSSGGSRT
Experimental: as §1, §2, §3, §4

GSK3B = biological target: T5, GSK3B (Homo sapiens, UniProt P49841); assay: Liability panel screening by DSF: GSK3B; type: binding; details: DSF, 20 µM, n=2; read-out: Mean ΔTM GSK3B
T5 construct: made in house
T5 sequence (P49841 whole entry, species assumed): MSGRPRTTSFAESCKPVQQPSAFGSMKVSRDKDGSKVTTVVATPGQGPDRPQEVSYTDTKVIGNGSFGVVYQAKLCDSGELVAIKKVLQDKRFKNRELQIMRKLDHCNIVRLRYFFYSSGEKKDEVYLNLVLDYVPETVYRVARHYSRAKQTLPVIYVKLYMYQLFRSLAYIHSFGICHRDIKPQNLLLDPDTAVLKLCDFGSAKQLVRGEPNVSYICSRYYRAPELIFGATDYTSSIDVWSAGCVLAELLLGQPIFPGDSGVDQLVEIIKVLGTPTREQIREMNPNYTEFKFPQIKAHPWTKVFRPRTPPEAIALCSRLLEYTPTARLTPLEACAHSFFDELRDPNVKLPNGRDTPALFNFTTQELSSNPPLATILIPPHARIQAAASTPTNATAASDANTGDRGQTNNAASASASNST

BRD4 = biological target: T6, BRD4 (Homo sapiens, UniProt O60885); assay: Liability panel screening by DSF: BRD4; type: binding; details: DSF, 20 µM, n=2; read-out: Mean ΔTM BRD4
T6 construct: This panel comprised ten highly ligandable kinases and bromodomains; made in house
Experimental: as §1, §2, §3, §4

BRPF1 = biological target: T7, BRPF1 (Homo sapiens, UniProt P55201); assay: Liability panel screening by DSF: BRPF1; type: binding; details: DSF, 20 µM, n=2; read-out: Mean ΔTM BRPF1
T7 construct: This panel comprised ten highly ligandable kinases and bromodomains; made in house
T7 sequence (P55201 628-732 limits assumed): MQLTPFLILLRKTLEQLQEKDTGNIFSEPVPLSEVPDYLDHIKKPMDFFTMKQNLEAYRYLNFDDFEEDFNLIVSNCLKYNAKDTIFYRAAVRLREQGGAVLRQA
Experimental: as §1, §2, §3, §4

CSNK1D = biological target: T8, CSNK1D (Homo sapiens, UniProt P48730); assay: Liability panel screening by DSF: CSNK1D; type: binding; details: DSF, 20 µM, n=2; read-out: Mean ΔTM CSNK1D
T8 construct: made in house
T8 sequence (P48730 whole entry, species assumed): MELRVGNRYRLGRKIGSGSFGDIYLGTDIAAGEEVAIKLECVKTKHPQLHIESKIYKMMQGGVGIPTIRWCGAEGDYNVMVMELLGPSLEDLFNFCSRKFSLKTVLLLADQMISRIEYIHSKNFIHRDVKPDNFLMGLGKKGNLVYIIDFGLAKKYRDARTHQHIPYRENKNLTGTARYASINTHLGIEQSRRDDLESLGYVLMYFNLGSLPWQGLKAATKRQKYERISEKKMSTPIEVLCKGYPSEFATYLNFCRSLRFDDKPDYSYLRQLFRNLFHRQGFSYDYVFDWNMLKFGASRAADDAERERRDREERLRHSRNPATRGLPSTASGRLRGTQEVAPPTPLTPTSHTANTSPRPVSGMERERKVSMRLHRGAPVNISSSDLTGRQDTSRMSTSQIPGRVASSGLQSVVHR
Experimental: as §1, §2, §3, §4

MAPK1 = biological target: T9, MAPK1 (Homo sapiens, UniProt P28482); assay: Liability panel screening by DSF: MAPK1; type: binding; details: DSF, 20 µM, n=2; read-out: Mean ΔTM MAPK1
T9 construct: made in house
T9 sequence (P28482 whole entry, species assumed): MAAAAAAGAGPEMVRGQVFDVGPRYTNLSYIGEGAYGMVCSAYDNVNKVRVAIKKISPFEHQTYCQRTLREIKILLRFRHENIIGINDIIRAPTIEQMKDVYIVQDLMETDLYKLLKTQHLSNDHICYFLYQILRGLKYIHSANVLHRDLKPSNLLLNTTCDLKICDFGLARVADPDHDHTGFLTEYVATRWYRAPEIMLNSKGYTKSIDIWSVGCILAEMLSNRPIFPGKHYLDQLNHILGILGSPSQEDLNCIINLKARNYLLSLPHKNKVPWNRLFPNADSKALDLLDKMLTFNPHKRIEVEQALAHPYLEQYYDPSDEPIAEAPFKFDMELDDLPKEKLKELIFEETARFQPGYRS
Experimental: as §1, §2, §3, §4

TRIM24 = biological target: T10, TRIM24 (Homo sapiens, UniProt O15164); assay: Liability panel screening by DSF: TRIM24; type: binding; details: DSF, 20 µM, n=2; read-out: Mean ΔTM TRIM24
T10 construct: This panel comprised ten highly ligandable kinases and bromodomains; made in house
T10 sequence (O15164 899-1004 limits assumed): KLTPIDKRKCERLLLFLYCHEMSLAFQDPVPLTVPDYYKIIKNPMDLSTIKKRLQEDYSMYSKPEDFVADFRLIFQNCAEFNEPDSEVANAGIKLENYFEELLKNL
Experimental: as §1, §2, §3, §4

[2] = system: NF-κB activity in HEK293 NF-κB reporter cells; assay: NF-kB activity assay (GFP reporter, ionomycin/PMA); type: cell-based; details: n=3
Experimental: Fig. 6 Application of the NR3 CG set.
After 24 h, cells were incubated with the test compounds solubilized with 0.1% DMSO in the same medium without puromycin. After 4 h incubation, ionomycin (100 ng/mL) and phorbol-12-myristat-13-acetate (PMA, 10 ng/mL) was added, and the cells were imaged for confluence and GFP expression every 90 min. over 24 h using a Tecan SPARK Cyto (Tecan). The number of GFP expressing cells was normalized to confluence in each sample. Each sample was repeated in three biologically independent experiments.

[3] = system: ATF6 activity in Hela ATF6 reporter cells; assay: Endoplasmic reticulum stress assay (ATF6 Renilla luciferase reporter, tunicamycin); type: cell-based; details: Homo sapiens, HeLa, 1 µM, single replicates n=1 to n=5; read-out: ER stress [rel. ATF6 activity]
Experimental: After 24 h, cells were incubated with the test compounds solubilized with 0.1% DMSO in the same medium without puromycin. After 4 h incubation, tunicamycin (100 ng/mL) was added. After another 18 h incubation, cells were assayed for renilla luminescence using DualGlo reagent (Promega) on a Tecan SPARK Cyto (Tecan). Test samples were normalized to the 0.1% DMSO control. Each sample was repeated in five biologically independent experiments.

HEK293T cells [4] = assay: Cytotoxicity: metabolic activity (WST-8 / CCK-8 assay); details: 1 µM; HEK293T, 24 h; WST-8; normalized to 0.1% DMSO; single replicates
Experimental: Cells were incubated with the test compounds at the indicated concentrations solubilized with 0.1% DMSO for 24 h. Growth-rate was determined based on the change in confluence over 24 h normalized to the change in confluence of cells treated with the 0.1% DMSO control (n = 10). Metabolic activity was determined with a water-soluble tetrazolium-8 (WST-8) assay (n = 8) after 24 h treatment. Apoptotic cells were detected with a fluorogenic DNA dye coupled to the caspase-3/7 recognition sequence (DEVD) after 24 h treatment and the apoptotic cell count was normalized to 0.1% DMSO treated cells (n = 6).
HEK293T cells (German Collection of Microorganisms and Cell Culture GmbH, DSMZ; #ACC305) were cultured in DMEM high glucose, supplemented with 10% fetal calf serum (FCS), sodium pyruvate (1 mM), penicillin (100 µ/mL) and streptomycin (100 µg/mL) at 37 °C and 5% (v/v) CO2, and seeded in pre-coated (10 µg/mL collagen G solution (Merck KgaA; #L7213) for 30 min at 37 °C) 96-well plates (2 × 10^5 cells per well). After 24 h, the cells were treated with the respective NR3 CG compound candidate at the recommended concentration, bexarotene (100 µM) or doxorubicin (30 µM) as positive controls in DMEM high glucose supplemented with 0.1% FCS, penicillin (100 µ/mL), streptomycin (100 µg/mL) and 0.1% DMSO, or 0.1% DMSO alone as an untreated control. Each sample was prepared in at least four biologically independent replicates. […] Thereafter, the medium was aspirated and the cells were incubated for 3 h with 90 µL DMEM high glucose supplemented with 0.2% FCS, penicillin (100 µ/mL) and streptomycin (100 µg/mL) and additionally containing 10 µL Cell Counting Kit 8 solution (CCK-8; MedChemExpress, Monmouth Junction, New York, USA; #HY-K0301), and absorbance was measured at 1 h, 2 h and 3 h of incubation at 450 nm on a Tecan Spark Cyto to assess metabolic activity of the cells. Before drug administration, after the first medium exchange, 24 h after drug administration, and after fluorescence imaging cell confluence was assessed using the Tecan Spark Cyto, to account for changes in cell confluence due to drug administration and cell handling. Compound effects on cell confluence, apoptosis, metabolic activity and necrosis were normalized to the vehicle control of each biological replicate individually.

HEK293T cells [5] = assay: Cytotoxicity: growth-rate (change in confluence over 24 h); details: 1 µM, normalized to 0.1% DMSO control, single replicates (n=1...)
HEK293T cells [6] = assay: Cytotoxicity: apoptosis induction (caspase-3/7 DEVD fluorogenic DNA dye); details: 1 µM; HEK293T, 24 h; apoptotic cell count normalized to 0.1% DMSO; single replicates

SMILES: COC(=O)[C@@H]1CC2=CC(=O)CC[C@]2(C)[C@@]23O[C@@H]2C[C@@]2(C)[C@@H](CC[C@@]24CCC(=O)O4)[C@H]13 [Eplerenone]
- Necrosis induction [NI] (HEK293T cells [1]): 1.05 and 1.24 and 1.00 and 0.99
- VP16 control [fold reporter gene activity] (Gal4-VP16): 1.24 fold reporter gene activity and 0.82 fold reporter gene activity and 1.00 fold reporter gene activity
- ΔTm at 20 µM (ABL1): 0.55 °C
- ΔTm at 20 µM (AURKA): -0.81 °C
- ΔTm at 20 µM (CDK2): -0.21 °C
- ΔTm at 20 µM (FGFR3): 1.06 °C
- ΔTm at 20 µM (GSK3B): -0.8 °C
- ΔTm at 20 µM (BRD4): -1.74 °C
- ΔTm at 20 µM (BRPF1): -1.07 °C
- ΔTm at 20 µM (CSNK1D): 0.47 °C
- ΔTm at 20 µM (MAPK1): 0.21 °C
- ΔTm at 20 µM (TRIM24): -0.62 °C
- Mean NFκB response ([2]; 1 µM, 1,5 h): 2599.33 GFP+-cells/confluence ∙ 1000
- Mean NFκB response ([2]; 1 µM, 4,5 h): 2970.00 GFP+-cells/confluence ∙ 1000
- Mean NFκB response ([2]; 1 µM, 7,5 h): 5786.00 GFP+-cells/confluence ∙ 1000
- Mean NFκB response ([2]; 1 µM, 10,5 h): 15820.00 GFP+-cells/confluence ∙ 1000
- Mean NFκB response ([2]; 1 µM, 13,5 h): 23870.00 GFP+-cells/confluence ∙ 1000
- Mean NFκB response ([2]; 1 µM, 16,6 h): 30236.67 GFP+-cells/confluence ∙ 1000
- Mean NFκB response ([2]; 1 µM, 19,5 h): 34356.67 GFP+-cells/confluence ∙ 1000
- Mean NFκB response ([2]; 1 µM, 22,5 h): 38213.33 GFP+-cells/confluence ∙ 1000
- Mean NFκB response ([2]; 1 µM, 3 h): 2606.00 GFP+-cells/confluence ∙ 1000
- Mean NFκB response ([2]; 1 µM, 6 h): 3625.00 GFP+-cells/confluence ∙ 1000
- Mean NFκB response ([2]; 1 µM, 9 h): 10753.00 GFP+-cells/confluence ∙ 1000
- Mean NFκB response ([2]; 1 µM, 12 h): 20210.00 GFP+-cells/confluence ∙ 1000
- Mean NFκB response ([2]; 1 µM, 15 h): 27316.67 GFP+-cells/confluence ∙ 1000
- Mean NFκB response ([2]; 1 µM, 18 h): 32426.67 GFP+-cells/confluence ∙ 1000
- Mean NFκB response ([2]; 1 µM, 21 h): 36556.67 GFP+-cells/confluence ∙ 1000
- Mean NFκB response ([2]; 1 µM, 24 h): 39176.67 GFP+-cells/confluence ∙ 1000
- activity at 1 µM [3]: 96%
- Metabolic activity [MA] (HEK293T cells [4]): 1.06 and 1.03 and 0.91 and 0.99 (3×) and 0.98 and 1.09
- Growth rate [GR] (HEK293T cells [5]): 0.85 and 4.28 and 0.92 and 1.11 and 0.73 and 0.84 and 0.96 and 4.53 and 0.57 and 31.96
- Apoptosis induction [AI] (HEK293T cells [6]): 0.96 and 0.85 and 1.29 and 1.36 and 1.16 and 1.24
